Experimental data published in patent publication US5858992A, “Non-reducing saccharides, their preparation and use” (Kabushiki Kaisha Hayashibara Seibutsu Kagaku Kenkyujo, priority 1995, dated 1999).

Legend:
[1] = Maillard reaction (coloration with glycine); format: physicochemical; details: 10 w/v % saccharide, one w/v % glycine, 50 mM phosphate buffer pH 7.0, 100° C. for 90 min, 1-cm light-path cell
[2] = test system: Bifidobacterium adolescentis JCM 1275; assay: Assimilation test by intestinal microorganism; format: cell-based; details: 0.5 w/v % saccharide in PYF broth, 37° C., 96 hours; free of sugar: -
[3] = test system: Bifidobacterium animalis JCM 1190; assay: Assimilation test by intestinal microorganism; format: cell-based; details: 0.5 w/v % saccharide in PYF broth, 37° C., 96 hours; free of sugar: -
[4] = test system: Bifidobacterium bifidum JCM 1255; assay: Assimilation test by intestinal microorganism; format: cell-based; details: 0.5 w/v % saccharide in PYF broth, 37° C., 96 hours; free of sugar: -
[5] = test system: Bifidobacterium breve JCM 1192; assay: Assimilation test by intestinal microorganism; format: cell-based; details: 0.5 w/v % saccharide in PYF broth, 37° C., 96 hours; free of sugar: -
[6] = test system: Bifidobacterium infantis JCM 1222; assay: Assimilation test by intestinal microorganism; format: cell-based; details: 0.5 w/v % saccharide in PYF broth, 37° C., 96 hours; free of sugar: -
[7] = test system: Bifidobacterium longum JCM 1217; assay: Assimilation test by intestinal microorganism; format: cell-based; details: 0.5 w/v % saccharide in PYF broth, 37° C., 96 hours; free of sugar: -
[8] = test system: Lactobacillus fermentum IFO 3959; assay: Assimilation test by intestinal microorganism; format: cell-based; details: 0.5 w/v % saccharide in PYF broth, 37° C., 96 hours; free of sugar: -
[9] = test system: Lactobacillus plantarum IFO 3070; assay: Assimilation test by intestinal microorganism; format: cell-based; details: 0.5 w/v % saccharide in PYF broth, 37° C., 96 hours; free of sugar: -
[10] = test system: Eubacterium aerofaciens ATCC 25986; assay: Assimilation test by intestinal microorganism; format: cell-based; details: 0.5 w/v % saccharide in PYF broth, 37° C., 96 hours; free of sugar: -
[11] = test system: Bacteroides distasonis JCM 5825; assay: Assimilation test by intestinal microorganism; format: cell-based; details: 0.5 w/v % saccharide in PYF broth, 37° C., 96 hours; free of sugar: -
[12] = test system: Bacteroides vulgatus JCM 5826; assay: Assimilation test by intestinal microorganism; format: cell-based; details: 0.5 w/v % saccharide in PYF broth, 37° C., 96 hours; free of sugar: -
[13] = test system: Bacteroides uniformis JCM 5828; assay: Assimilation test by intestinal microorganism; format: cell-based; details: 0.5 w/v % saccharide in PYF broth, 37° C., 96 hours; free of sugar: -
[14] = test system: Clostridium butyricum JCM 1391; format: cell-based; details: 0.5 w/v % saccharide in PYF broth, 37° C., 96 hours; free of sugar: -
[15] = test system: Clostridium perfringens JCM 3816; format: cell-based; details: 0.5 w/v % saccharide in PYF broth, 37° C., 96 hours; free of sugar: -
[16] = test system: Clostridium ramosum JCM 1298; assay: Assimilation test by intestinal microorganism; format: cell-based; details: 0.5 w/v % saccharide in PYF broth, 37° C., 96 hours; free of sugar: -
[17] = test system: Streptococcus faecalis IAM 10065; assay: Assimilation test by intestinal microorganism; format: cell-based; details: 0.5 w/v % saccharide in PYF broth, 37° C., 96 hours; free of sugar: -
[18] = test system: Peptostreptococcus prevotii ATCC 9321; assay: Assimilation test by intestinal microorganism; format: cell-based; details: 0.5 w/v % saccharide in PYF broth, 37° C., 96 hours; free of sugar: -
[19] = test system: Escherichia coli IFO 3301; assay: Assimilation test by intestinal microorganism; format: cell-based; details: 0.5 w/v % saccharide in PYF broth, 37° C., 96 hours; free of sugar: -
glucosyltransferase = assay: Inhibition of insoluble glucan formation by glucosyltransferase from dental caries-inducing microorganism; format: biochemical, Streptococcus sobrinus strain (ATCC 27351); details: sucrose plus test saccharide (one ml of one w/v % each), 37° C., 16 hours
Experimental: To a mixture solution consisting of one ml of one w/v % sucrose solution, one ml of one w/v % of a test saccharide solution, and 1.5 ml of 0.1M phosphate buffer (pH 6.8) was added 0.5 ml solution containing a crude glucosyltransferase specimen in a total protein content of 10 mg, and the mixture solution was placed in a small test tube which was then fixed and slanted to give a grade 30 degrees and allowed to react at 37° C. for 16 hours. The reaction mixture was transferred gently to another test tube and mixed with a solution obtained by washing carefully with 4 ml water the remaining substances adhered to the inner walls of the small test tube, and the mixture solution was centrifuged to obtain a precipitate as a non-adsorbed glucan. The amounts of the adsorbed- and non-adsorbed glucans thus obtained were respectively quantified by the anthrone-sulfuric acid method, and the total amount of them was regarded as the amount of the formed insoluble glucans. As a control system, a reaction system using water in place of the test saccharide solution, i.e. a reaction system using sucrose as a saccharide, was provided.

Salivary amylase = molecular target: T1, Salivary amylase (Homo sapiens, UniProt P0DUB6); assay: in vitro
T1 sequence (P0DUB6 16-511): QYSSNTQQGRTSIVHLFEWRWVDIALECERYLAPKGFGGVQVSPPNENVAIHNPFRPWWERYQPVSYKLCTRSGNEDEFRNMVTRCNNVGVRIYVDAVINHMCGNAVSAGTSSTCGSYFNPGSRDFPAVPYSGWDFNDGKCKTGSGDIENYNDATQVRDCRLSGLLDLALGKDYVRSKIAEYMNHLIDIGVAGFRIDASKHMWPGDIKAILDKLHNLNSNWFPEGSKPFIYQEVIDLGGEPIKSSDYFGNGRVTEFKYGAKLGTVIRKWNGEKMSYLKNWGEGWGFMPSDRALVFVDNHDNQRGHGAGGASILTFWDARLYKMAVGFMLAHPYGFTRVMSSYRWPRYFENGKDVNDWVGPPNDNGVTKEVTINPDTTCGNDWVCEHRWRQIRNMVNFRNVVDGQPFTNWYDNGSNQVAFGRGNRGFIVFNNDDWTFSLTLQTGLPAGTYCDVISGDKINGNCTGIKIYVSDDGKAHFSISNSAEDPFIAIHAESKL

Pancreatic juice amylase = molecular target: T2, Pancreatic juice amylase (Homo sapiens, UniProt P04746); assay: in vitro
T2 sequence (P04746 16-511): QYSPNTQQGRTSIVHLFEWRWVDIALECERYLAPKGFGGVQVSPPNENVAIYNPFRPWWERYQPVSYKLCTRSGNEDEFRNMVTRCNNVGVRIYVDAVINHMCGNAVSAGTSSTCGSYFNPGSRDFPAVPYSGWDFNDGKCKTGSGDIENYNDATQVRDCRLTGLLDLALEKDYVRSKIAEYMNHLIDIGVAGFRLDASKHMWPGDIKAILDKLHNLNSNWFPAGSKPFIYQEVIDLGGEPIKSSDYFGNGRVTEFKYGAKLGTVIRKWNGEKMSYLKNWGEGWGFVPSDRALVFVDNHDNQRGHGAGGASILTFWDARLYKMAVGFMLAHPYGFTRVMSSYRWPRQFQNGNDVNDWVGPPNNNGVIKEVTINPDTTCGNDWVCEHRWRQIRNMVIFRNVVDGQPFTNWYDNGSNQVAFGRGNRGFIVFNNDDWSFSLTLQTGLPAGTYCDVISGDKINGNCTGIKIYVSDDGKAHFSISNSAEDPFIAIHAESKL

in vitro [20] = details: small intestinal mucosa enzyme
[21] = test system: Streptococcus sobrinus ATCC 27351; assay: Acid formation by dental caries-inducing microorganisms; details: for pH at each fermentation time (min): living wet cells, 0.02M saccharide, Stephen buffer pH 7.0, 37° C.
[22] = test system: Clostridium sporogenes JCM 1416; assay: Assimilation test by intestinal microorganism; format: cell-based; details: 0.5 w/v % saccharide in PYF broth, 37° C., 96 hours; free of sugar: ±
Experimental: To evaluate the growth rate of and to judge the assimilability by the microorganisms, the resultant broth was diluted 5-fold, and the turbidity of the dilution was measured at a wavelength of 750 nm in a 1-cm light-path cell. […] The criteria were in Table 3, and the results were in Tables 4 and 5: […]

in vitro [23] = details: gastric acid

Compound | Coloration degree (at a wavelength of 480 nm) [1] | Judgement of assimilation (turbidity at 750 nm, ×5) [2] | Judgement of assimilation (turbidity at 750 nm, ×5) [3] | Judgement of assimilation (turbidity at 750 nm, ×5) [4] | Judgement of assimilation (turbidity at 750 nm, ×5) [5] | Judgement of assimilation (turbidity at 750 nm, ×5) [6] | Judgement of assimilation (turbidity at 750 nm, ×5) [7] | Judgement of assimilation (turbidity at 750 nm, ×5) [8] | Judgement of assimilation (turbidity at 750 nm, ×5) [9] | Judgement of assimilation (turbidity at 750 nm, ×5) [10] | Judgement of assimilation (turbidity at 750 nm, ×5) [11] | Judgement of assimilation (turbidity at 750 nm, ×5) [12] | Judgement of assimilation (turbidity at 750 nm, ×5) [13] | Judgement of assimilation (turbidity at 750 nm, ×5) [15] | Judgement of assimilation (turbidity at 750 nm, ×5) [16] | Judgement of assimilation (turbidity at 750 nm, ×5) [17] | Judgement of assimilation (turbidity at 750 nm, ×5) [18] | Judgement of assimilation (turbidity at 750 nm, ×5) [19] | metabolised (Salivary amylase) [%] | metabolised (Pancreatic juice amylase) [%] | further results
OC[C@H]1O[C@H](O[C@H]2O[C@H](CO)[C@@H](O)[C@H](O)[C@H]2O)[C@H](O)[C@@H](O)[C@@H]1O [Trehalose, α,α-trehalose, reference compound] | 0.007 | + (0.15 or higher but less than 0.2) | + (0.15 or higher but less than 0.2) | + (0.15 or higher but less than 0.2) | - (Less than 0.1) | - (Less than 0.1) | ++ (0.2 or higher but less than 0.3) | + (0.15 or higher but less than 0.2) | ++ (0.2 or higher but less than 0.3) | - (Less than 0.1) | ++ (0.2 or higher but less than 0.3) | + (0.15 or higher but less than 0.2) | ++ (0.2 or higher but less than 0.3) | +++ (0.3 or higher) | + (0.15 or higher but less than 0.2) | + (0.15 or higher but less than 0.2) | + (0.15 or higher but less than 0.2) | - (Less than 0.1) | 0 | 0 | Judgement of assimilation (turbidity at 750 nm, ×5) [14]: +++ (0.3 or higher); Yield of non-adsorbed glucans (glucosyltransferase; sucrose alone control 923): 1,130 pg/ml; Yield of adsorbed glucans (glucosyltransferase; sucrose alone control 1,160): 772 pg/mL; Inhibitory percentage (%) on insoluble glucans formation (glucosyltransferase; vs sucrose alone): 8.7%; metabolised (in vitro [20]): 1.3%; pH reduction / acid fermentation, in words [21]: moderate; pH at each fermentation time (min) ([21]; 0 min): 7.0; pH at each fermentation time (min) ([21]; 5 min): 6.7; pH at each fermentation time (min) ([21]; 15 min): 5.3; pH at each fermentation time (min) ([21]; 30 min): 4.7; pH at each fermentation time (min) ([21]; 60 min): 4.3; pH at each fermentation time (min) ([21]; 90 min): 4.2
OC[C@H]1O[C@H](OC[C@H]2OC(O)[C@H](O)[C@@H](O)[C@@H]2O)[C@H](O)[C@@H](O)[C@@H]1O (stereo partly shown) [Isomaltose, reference compound] | 0.938 | +++ (0.3 or higher) | +++ (0.3 or higher) | + (0.15 or higher but less than 0.2) | +++ (0.3 or higher) | +++ (0.3 or higher) | ++ (0.2 or higher but less than 0.3) | - (Less than 0.1) | - (Less than 0.1) | + (0.15 or higher but less than 0.2) | + (0.15 or higher but less than 0.2) | - (Less than 0.1) | - (Less than 0.1) | ± (0.1 or higher but less than 0.15) | - (Less than 0.1) | + (0.15 or higher but less than 0.2) | - (Less than 0.1) | - (Less than 0.1) | 0 | 0.2 | Judgement of assimilation (turbidity at 750 nm, ×5) [22]: ± (0.1 or higher but less than 0.15); degraded (in vitro [23]): 0%; pH reduction / acid fermentation, in words [21]: slight; pH at each fermentation time (min) ([21]; 0 min): 7.0; pH at each fermentation time (min) ([21]; 5 min): 7.0; pH at each fermentation time (min) ([21]; 15 min): 6.9; pH at each fermentation time (min) ([21]; 30 min): 6.9; pH at each fermentation time (min) ([21]; 60 min): 6.8; pH at each fermentation time (min) ([21]; 90 min): 6.7
